Experimental data taken from patent US9072729B2, “Method for treating fibrosis and cancer with imidazolium and imidazolinium compounds” (Agency for Science, Technology and Research, priority 2008, dated 2015).

How the values were obtained:
GPx = test: Glutathione peroxidase (GPx) activity assay in treated cells; assay type: cell-based, rat; conditions: EGCG 25 μM, NAC 5 mM
Description: (§1) FIG. 4. Effect of DBZIM and TDBZIM on GPx, CAT, SOD and GST. DBZIM affected (a) GPx activity and (c) CAT activity in a dosage-dependent manner. TDBZIM suppressed (b) GPx activity and (d) CAT activity. (e) DBZIM and (f) TDBZIM had little effect on SOD activity. (g) DBZIM induced GST activity. HSC T6 cells were treated with compounds of various concentrations for 48 h, and homogenized by sonication (60% frequency for 30 s) in PBS (pH 7.4, 1 mM of EDTA) for GPx, GST and CAT assays, or in 20 mM of HEPES buffer containing 1 mM of EGTA, 210 mM of mannitol and 70 mM of sucrose (pH 7.2) for SOD assay. Enzyme activity was normalized against total protein. DBZIM was dissolved in DMSO, and TDBZIM was dissolved in H2O. The data were presented as mean and SEM, N=6, *^aP<0.05, *^bP<0.01, *^cP<0.005, and *^dP<0.0005, when compared to the vehicle control.
(§2) Activity levels of three anti-oxidant enzymes, GPx, CAT and SOD, were determined using assay kits from Cayman Chemical. To assay GPx and CAT activities, protein samples were harvested in ice-cold PBS containing 1 mM of EDTA. To assay SOD activity, protein samples were prepared in 20 mM of N-(2-hydroxyethyl)-piperazine-N′-2-ethanesulfonic acid (HEPES) buffer containing 1 mM of ethylene glycol-bis(2-aminoethylether)-N,N,N′,N′-tetraacetic acid (EGTA), 210 mM of mannitol and 70 mM of sucrose. Protein content was determined by BCA assay.
GPx activity was indirectly measured by a coupled reaction with GSH reductase. Oxidized GSH, produced upon reduction of H2O2 by GPx, is recycled to its reduced state by glutathione reductase (GR) and nicotinamide adenine dinucleotide phosphate (NADPH). The oxidation of NAPDH is proportional to the GPx activity, and can be measured as a decrease in absorbance at 340 nm. GPx activity was expressed as nmol/min/mg protein.

GST = test: Glutathione S-transferase (GST) assay in treated cells; assay type: cell-based, rat; conditions: EGCG, NAC
Description: as §1
The activity of phase II anti-oxidant enzyme, GST, was assayed using a kit from Cayman Chemical. Protein samples were harvested in PBS buffer containing 1 mM of EDTA, and the protein concentration was determined by BCA assay. Total GST (cytosolic and microsomal) activity was assayed by measuring the conjugation of 1-chloro-2,4-dinitobenzene (CDNB) with reduced GSH, and monitored by an increase in absorbance at 340 nm. GST activity was expressed as nmol/min/mg protein.

SOD = test: Superoxide dismutase (SOD) activity assay in treated cells; assay type: cell-based, rat; conditions: HSC T6 cells, 48 h
Description: as §1, §2
Total SOD, including all three types of SOD (Cu/Zn-, Mn- and Fe-SOD), was quantified using a tetrazolium salt to detect superoxide radicals generated by xanthine oxidase and hyposanthine. […] SOD activity was expressed as U/mg protein.

CAT = test: Catalase (CAT) activity assay in treated cells; assay type: cell-based, rat; conditions: EGCG, NAC (FIG. 4c)
Description: FIG. 4. […] Enzyme activity was normalized against total protein. DBZIM was dissolved in DMSO, and TDBZIM was dissolved in H2O. The data were presented as mean and SEM, N=6, *^aP<0.05, *^bP<0.01, *^cP<0.005, and *^dP<0.0005, when compared to the vehicle control.
Activity levels of three anti-oxidant enzymes, GPx, CAT and SOD, were determined using assay kits from Cayman Chemical. To assay GPx and CAT activities, protein samples were harvested in ice-cold PBS containing 1 mM of EDTA. […] Protein content was determined by BCA assay.
CAT activity was determined based on reaction of the enzyme with methanol in the presence of H2O2. The formaldehyde produced was measured spectrophotometrically at 540 nm using Purpald as the chromogen. CAT activity was expressed as nmol/min/mg protein.

HSC-T6 cells [1] = test: Glutathione (GSH) and GSSG assays; assay type: cell-based, rat; conditions: EGCG 25 μM, NAC 5 mM, 48 h
Description: FIG. 3. […] (c) DBZIM and (d) TDBZIM both suppressed cellular GSSG (the oxidation product of GSH). (e) DBZIM and (f) TDBZIM both enhanced the GSH/GSSG ratio. HSC-T6 cells were incubated with compounds of various concentrations for 48 h, and assayed for the total GSH and GSSG amounts. The GSH/GSSG ratio was calculated as (GSH−GSSG)/GSSG. The GSH and GSSG amounts were normalized against the total protein. Note that DBZIM was dissolved in DMSO, and TDBZIM was dissolved in H2O. The data were presented as mean and SEM, N=6, *^aP<0.05, *^bP<0.01, *^cP<0.005, and *^dP<0.0005, when compared to the vehicle control.
Total cellular GSH and GSSG levels were determined by using assay kits from Cayman Chemical (Ann Arbor, Mich., USA) following the manufacturer's instructions. Briefly, HSC-T6 cells treated with DBZIM, TDBZIM, NAC, or EGCG were scalped and homogenized in phosphate buffered saline (PBS) by sonication at 60% frequency for 30 s, and the supernatant was collected after centrifugation at 16,000×g for 10 min at 4° C. Protein content of the samples was determined by bicinchonicic acid (BCA) assay.
For GSH assays, the protein sample was deproteinated by metaphosphoric acid (Aldrich, Catalog No. 23927-5), and the pH was adjusted by triethanolamine (Aldrich, Catalog No. T5830-0) according to the manual. The sample was ready for assaying total GSH including both the reduced and oxidized forms. Quantification of GSSG, exclusive of GSH, was performed by first derivatizing GSH with 2-vinylpyridine and assaying separately. Colorimetric signal was recorded at 405 nm with a Tecan Safire II plate reader. The levels of GSH or GSSG were determined as nmol/μg protein.

HSC-T6 cells [2] = test: Cellular ROS determination (DCF labeling); assay type: cell-based, rat; conditions: EGCG 25 μM, NAC 1 mM, 48 h
Description: FIG. 2. (a) DBZIM and (b) TDBZIM attenuated cellular ROS level. HSC T6 cells were incubated with DBZIM (10, 50, 100 and 300 μM), TDBZIM (10, 50 and 100 μM), NAC (1 mM) and EGCG (25 μM) for 48 h before assaying for cellular ROS levels. The data were presented as relative values after normalizing against a vehicle control. The data were presented as mean and SEM, N=6, *^bP<0.01, *^cP<0.005, and *^dP<0.0005 when compared to the vehicle, control.
The ROS level of treated HSC-T6 cells was determined using the dichlorofluorescein (DCF) labeling method (Molecular Probes Inc., OR, USA). Cultured cells were harvested by trypsinization, and resuspended in phenol red-free DMEM (Invitrogen). Cells were then incubated with 10 μg/ml of 2′,7′-dichloro-fluorescein diacetate (DCFH-DA) in DMEM for 15 min before resuspension in DMEM for assaying. Cell solution was dispensed into a black-wall 96-well pate in triplicate for fluorescence readout at Ex=485 nm and Em=530 nm with a Tecan Safire II plate reader. The fluorescence unit was normalized against viable cell numbers, which were determined using 3-(4,5-dimethylthiazol-2-yl)-2,5-diphenyl tetrazolium bromide (MTT assay, Promega, Wis., USA). Cellular ROS level was expressed relative to the control sample.

HLE cells [3] = test: Apoptosis assay (Annexin V-FITC/PI flow cytometry); assay type: cell-based, human; conditions: 72 h, IBN-15 60 μM, IBN-19 90 μM, IBN-24 90 μM, IBN-25 30 μM, IBN-32 20 μM, DMSO 0.045%
Description: FIG. 36. IMSs induce apoptosis in Hepatocarcinoma cells. A) Cells were treated with vehicle and IBN 15, IBN 19, IBM 24, IBN 25 and IBN 32 for 72 h, and apoptosis was quantified using Annexin V-FITC/PI staining followed by flow cytometric analysis. 10,000 cells were detected for every sample. Living cells are in the bottom left quadrants (FITC− and PI−), early apoptotic cells in the bottom right quadrants (FITC+ and PI−), and late apoptotic cells in the upper right quadrants (apoptotic FITC+ and PI+). B) The percentage of apoptotic cells with respect to different IMSs.
To determine apoptosis analysis, 4×10^5 cells were plated in 10 cm dish. […] The floating and trypsinized adherent cells were collected and the apoptosis was quantified using Annexin V-FITC reagent (BD Biosciences Pharmingen) and PI (Invitrogen) following the manufacturer's protocol. Briefly, the cells were washed twice with cold PBS and then resuspend cell in 100 μl of × binding buffer containing a 10 μl of Annexin V-FITC (BD-Pharminagen) and 2 μl of PI from the stock of 100 μg/ml. The cells were gently vortexed and incubated for 15 min at room temperature in the dark. Subsequently 400 μl of 1× binding buffer were added to each tube, and the samples were immediately analyzed by FACScan flow cytometer (Becton Dickinson). The fluorescent signals of the Annexin-V conjugate and PI were detected at channels of fluorescence intensity FL1 and FL2 (BD LSR II with software BD).
Cells undergoing apoptosis would stain positive for Annexin and negative for PI (quadrant 4, Q4). Cells which stained positive for both Annexin V-FITC and PI (Q2) are either at the end stage of apoptosis or undergoing necrosis, and those which stained negative for both Annexin V-FITC and PI (Q3) were alive or undergoing undetectable apoptosis. In contrast, cell debris stained only for PI (Q1).

HLE cells [4] = test: Cell cycle analysis (PI flow cytometry); assay type: cell-based, human; conditions: 72 h; for cells in the S phase: at respective IC-50, control 24%; for cells in the G2/M phase: at respective IC-50, control 30%; for cells in the G1 phase: at respective IC-50, control 50%
Description: FIG. 37. IMSs arrest Hepatocarcinoma cells. Cells were treated with vehicle and IBN 15, IBN 19, IBN 24, IBN 25 and IBN 32 for 72 h, and cell cycle distribution was assessed by flow cytometry. A) Example FACS profiles of propidium iodide-stained control cells, and cells treated with IMSs respectively. B) % of cells in cell cycle phase C) % of cells in subG0 population. Each value is the mean±S.D. of three determinations.
To perform cell cycle distribution analysis, 4×10^5 cells were plated in 10 cm dish. The cells (70% confluence) were serum-starved for 24 h to synchronize them in the G0 phase of the cell cycle. After 24 h incubation, the cells were replaced with fresh 10% DMEM medium and then treated 60 μM of IBN-15, 90 μM of IBN-19, 90 μM of IBN-24, 30 μM of […] and 20 μM of IBN-32) and 0.045% DMSO as control for 72 h. The floating and trypsinized adherent cells were collected and washed with PBS. The cell pellets were resuspended in 1 ml of PBS and fixed by the addition of 70% ice-cold ethanol and stored at −20° C. After incubation for 24 hr, the cells were re-pelleted by centrifugation, the cells were washed once with PBS and resuspended in 0.1 mL of PBS containing 100 μg/ml of RNase and then incubated at 37° C. for 15 min. Finally, the cells were stained with 0.5 ml of PI solution (100 μg/mL in PBS) for 30 min. Cell cycle distribution was detected by a BD FACS array flow cytometer (Becton Dickinson). Cells with sub-G0 DNA were classified as apoptotic cells.

HLE cells [5] = test: Growth inhibition assay (MTT), HLE; assay type: cell-based, human; conditions: Homo sapiens
Description: The effect of IMSs (IBN-15, IBN-19, IBN-24, IBN-25 and IBN-32) on the proliferative properties of p53 mutant cell line HLE was examined. The cytotoxicity activity and proliferation inhibition of IMSs in tumor cells were measured by MTT. […] The control experiments with DMSO alone (0.05% v/v) had no effect on cell proliferation. […] (Table 4) Microscopic observation on the cell cultures visually confirmed the inhibition on cell proliferation by IMSs. (FIG. 35)

Row | SMILES | attenuation of GPx activity (references) (GPx) | effect on GST activity (references) (GST) | effect on SOD activity (SOD) | suppression of CAT activity (references) (CAT) [%] | reduction of GSSG (references) (HSC-T6 cells [1]) | increase in GSH/GSSG ratio (references) (HSC-T6 cells [1]) | induction of total GSH (references) (HSC-T6 cells [1]) | attenuation of cellular ROS level (references) (HSC-T6 cells [2]) | cell apoptosis (Q2) (HLE cells [3]) [%] | cells in the S phase (HLE cells [4]) [%] | cells in the G2/M phase (HLE cells [4]) [%] | cells in the G1 phase (HLE cells [4]) [%] | IC50 (HLE cells [5]; 72 h) [µM] | IC50 (HLE cells [5]; 120 h) [µM]
1 | CC(=O)N[C@@H](CS)C(=O)O [NAC, N-acetyl-L-cysteine, reference compound] | did not show much effect | did not have much affect | did not show much effect | 35 | had no effect | no change | did not show any effect | did not show apparent inhibition | – | – | – | – | – | –
2 | [Br-].c1ccc(Cn2c[n+](Cc3ccccc3)cc2-c2ccccc2)cc1 [IBN-15, 1,3-Dibenzyl-5-phenylimidazolium bromide] | – | – | – | – | – | – | – | – | 33 | 19.7 | 21 | 42 | 60 | 20
3 | [Br-].c1ccc(CCn2cc[n+](CCc3ccccc3)c2)cc1 [IBN-32, 1,3-di(2-phenylethyl)-imidazolium bromide] | – | – | – | – | – | – | – | – | 18 | 14.6 | 18.9 | 32.3 | 20 | 20
